The values that follow come from patent US8729047B2, “Compositions for inhibiting redox-sensitive GTPases” (Board of Regents, The University of Texas System, priority 2010, dated 2014).

SMILES strings stand for the structures. Where two headings read alike, the source gives them in different places.

Assay [1] addresses T1, Ras (Homo sapiens, UniProt P01112, G12V).
T1 construct: endogenous in cells; text also names HT1080
Put plainly: Ras expression and activity in T24 / HT1080 cells. The class given is cell-based. As to conditions: T24 (or HT1080) cells, 6-TG 1 μM every 48 h and DETA/NO 10 μM every 20 h, longer than 10 days; FIG. 8. The protocol:
(§1) FIG. 8. Examination of Ras and Raf-1 activity in T24 cells treated with various reagents. […] The total Raf-1 expression also was determined using an anti-Raf-1 antibody. Actin expression in cells was shown as controls.

The subject of assay [2] is Ras. Kind of assay: Ras expression and activity in T24 / HT1080 cells. As to conditions: T24 and HT1080 cells, 8-TG 1 μM with NO donor; not shown. The class given is cell-based, human. The protocol:
as §1

The target in assay [3] is Ras (Homo sapiens, UniProt P01112). Kind of assay: [3H]GDP displacement of 6-TGDP from .NO2-treated 6-TGDP-loaded GTPase with/without DTT (FIG. 13B). The class given is binding. The protocol: FIG. 13. Guanine nucleotide exchange of small GTPases with 6-TGDP. (A) To monitor 6-TGDP-mediated GTPase GDP dissociation, [^3H]GDP-loaded GTPase (1 μM) was incubated with 6-TGDP (0-2000 μM) for 1 h. (B) To monitor GTPase 6-TGDP dissociation by GDP (0-2000 μM) in the presence and absence of dithiothreitol (DTT), 6-TGDP-loaded GTPase (˜1 μM) was treated with .NO2 (˜3 μM) under anaerobic conditions and was incubated with various concentrations of [^3H]GDP (0-2000 μM) in the presence and absence of DTT (10 mM) for 1 h. For all assays, aliquots were withdrawn and spotted onto nitrocellulose filters. The filters were then washed three times with an assay buffer, and radioactivity was determined using a Beckman-Coulter scintillation counter. The resultant radioactivity (dpm) values associated with GTPase-bound [^3H]GDP were converted into the fraction of mol nucleotide per mol total GTPase. The data presented represent mean and standard error values from triplicate measurements. The apparent dissociation constants (appKD values) of GTPase 6-TGDP association ([^3H]GDP dissociation, A); and 6-TGDP dissociation ([3H]GDP association, B) were obtained by fitting the data to a simple dissociation and association, respectively. (A) The ^appKD values of Ras, RhoC, RhoA and Rac1 for 6-TGDP, are, respectively, 2300, 230, 224, and 245 μM [6-TGDP]. (B) The appKD values of RhoC with and without DTT are, respectively, 560, and 1000 μM [[^3H]GDP], whereas the ^appKD values of Ras with and without DTT are 530, and 520 μM [[^3H]GDP], respectively. The standard errors of each ^appKD value are less than 10% of their given values, and regression values associated with the fit were r^2>0.9560.
The ^appKD [3H]GDP was converted into ^trueKD [3H]GDP by using a compensation equation, ^trueKD [3H]GDP=^appKD [3H]GDP/(1+[6-TGDP]/^trueKD GDP) (Segel, I. H. (1993) Enzyme kinetics, A Wiley-Interscience publication, New York) (see above)). The calculated ^trueKD [3H]GDP values of RhoC in the presence and absence of DTT were estimated to be 516 μM and 923 μM, respectively. […] Treatment with DTT, a reducing agent, disrupts the disulfide bond between RhoC and 6-TGDP, liberating 6-TGDP from RhoC, and thereby permitting [^3H]GDP to bind to RhoC.

The next assay has as its target T2, C20S RhoC (Homo sapiens, UniProt P08134, C20S).
T2 construct: made in house; host or cells: E. coli
Kind of assay: Titration of .NO2-treated RhoC-6-TGDP complex with [3H]GDP with/without DTT (FIG. 16D). In kind it is binding. As to conditions: .NO2-treated 6-TGDP C20S RhoC complex, read-out: appKD for [3H]GDP. The protocol:
FIG. 16. Kinetic properties of RhoC with 6-TGDP in the presence or absence of a redox agent. All kinetic analyses are described elsewhere herein. (A) ^appKD values of Rac1, RhoA, RhoC, and RhoC C20S for 6-TGDP were estimated to be 7.9, 11.6, 11.8, and 11.2 μM, respectively. ^trueKD values of Rac1, RhoA, and RhoC for 6-TGDP were then calculated to be 5.1, 10.8, 11.1, and 10.5 μM, respectively, by using a compensation equation, ^trueKD for 6-TGDP=^appKD for 6-TGDP/(1+[[^3H]GDP]/^trueKD for GDP) (Heo, J., and Hong, I. (2010) Biochemistry 49, 3965-3976), in conjunction with the values given. […] The GDP dissociation rates from RhoC C20S by NO, .NO2, and N2O3 were estimated to be 0.02×10^−3, 0.05×10^−3, and 0.04×10^−3 s^−1, respectively. […] (D) ^appKD values of RhoC for [^3H]GDP in the presence or absence of DTT were estimated to be 22.4 μM and […], respectively. ^appKD values of C20S RhoC for [^3H]GDP in the presence or absence of DTT were determined to be 24.8 μM and 25.2 μM, respectively. The regression values associated with these fits were >0.8595. […]
(d) The effect of .NO2 on the dissociation of 6-TGDP from RhoC was determined by treating the RhoC-6-TGDP complex titration with various concentrations of [^3H]GDP in the presence and absence of a reducing agent of either dithiothreitol (DTT) or β-mercaptoethanol. […]

The target of assay [4] is T3, Rac1 (Homo sapiens, UniProt P63000). Also on record: made in house; host or cells: E. coli. As to conditions: determined previously; read-out: trueKD GDP; cited from earlier work.
In assay [5] the target is T3, Rac1. Also on record: made in house; host or cells: E. coli. As to conditions: known value (Morgan et al.); read-out: trueKD for GDP; cited from earlier work.

T2 sequence (P08134 whole entry C20S): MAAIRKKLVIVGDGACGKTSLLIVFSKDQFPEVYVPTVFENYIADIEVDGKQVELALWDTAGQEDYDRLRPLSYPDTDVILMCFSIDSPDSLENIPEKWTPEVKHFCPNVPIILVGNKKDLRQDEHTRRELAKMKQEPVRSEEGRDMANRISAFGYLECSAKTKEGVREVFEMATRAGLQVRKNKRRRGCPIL

For the compound `Nc1nc2nc[nH]c2c(=S)[nH]1` [6-TG, 6-thioguanine], on Ras [1], the Ras inactivation entry was “significant amount of Ras (per cell mass) was inactivated”.
As to `Nc1nc2[nH]c(S)nc2c(=O)[nH]1` [8-TG, 2-amino-8-mercapto-1H-purin-6(9H)-one], the “expression and activity of Ras” value in the assay on Ras [2] is given as “virtually unchanged”.
Turning to `Nc1nc2c(ncn2[C@@H]2O[C@H](COP(=O)(O)OP(=O)(O)O)[C@@H](O)[C@H]2O)c(=O)[nH]1` [GDP], the Kd is 0.0048 µM on Ras [3] (absence of DTT, calculated by compensation equation, read-out: trueKD [3H]GDP); 0.0047 µM at Ras [3] (presence of DTT, calculated by compensation equation, read-out: trueKD [3H]GDP); 530 µM at Ras [3] (with DTT 10 mM, 6-TGDP-loaded GTPase ~1 μM treated with .NO2 ~3 μM, anaerobic, 1 h, read-out: appKD for [3H]GDP (6-TGDP dissociation)); 520 µM on Ras [3] (without DTT, 6-TGDP-loaded GTPase ~1 μM treated with .NO2 ~3 μM, anaerobic, 1 h, read-out: appKD for [3H]GDP (6-TGDP dissociation)); 25.2 µM at C20S RhoC (absence of DTT); 24.8 µM at C20S RhoC (presence of DTT). Moreover, the Kd on Rac1 [4] and at Rac1 [5] was 1.8 µM throughout.
